Measured values reported in patent US11000033B2, “Ketone or oxime compound, and herbicide” (NISSAN CHEMICAL CORPORATION, priority 2014, dated 2021).

Columns and labels:
Format in all cases: in vivo
Digitaria ciliaris = assay: Test Example 5: herbicidal effect by foliage application, plastic box (symbol F); settings: 320 g/ha, 3 weeks after application
Description: (§1) Herbicidal Effect Test by Foliage Application
(§2) Sterilized diluvial soil was placed in a plastic box having a length of 21 cm, a width of 13 cm, and a depth of 7 cm. Each of the seeds of Digitaria ciliaris, Setaria viridis, Echinochloa crus-galli var. crus-galli, Avena fatua, Alopecurus myosuroides, Lolium multiflorum Lam., Apera spica-venti, Abutilon theophrasti, Amaranthus retroflexus, Chenopodium album, Stellaria media, Galium spurium, Veronica persica, corn, soybean, rice plant, wheat, beet, and rapeseed was sowed in a spot-like manner and was covered with the soil of a thickness of about 1.5 cm. Thereafter, the plants were grown in the greenhouse of 25° C. to 30° C. After the plants were grown for 14 days, the emulsion agent of the compound of the present invention prepared in accordance with Formulation Example 2 was diluted with water so as to be a predetermined herbicide amount and the diluted emulsion agent was uniformly applied to a foliage part with a small-size spray. 3 weeks later from the herbicide application, the effect to each plant was investigated in accordance with the criteria of Test Example 1.

Setaria viridis = assay: Test Example 5: herbicidal effect by foliage application, plastic box (symbol G); settings: 320 g/ha, 3 weeks after application
Description: as §1, §2

[1] = test system: Echinochloa crus-galli var. crus-galli; assay: Test Example 5: herbicidal effect by foliage application, plastic box (symbol H); settings: 320 g/ha, 3 weeks after application
Description: as §1, §2

Avena fatua = assay: Test Example 5: herbicidal effect by foliage application, plastic box (symbol I); settings: 320 g/ha, 3 weeks after application
Description: as §1, §2

Alopecurus myosuroides = assay: Test Example 5: herbicidal effect by foliage application, plastic box (symbol J); settings: 320 g/ha, 3 weeks after application
Description: as §1, §2

Lolium multiflorum Lam. = assay: Test Example 5: herbicidal effect by foliage application, plastic box (symbol K); settings: 320 g/ha, 3 weeks after application
Description: as §1, §2

Apera spica-venti = assay: Test Example 5: herbicidal effect by foliage application, plastic box (symbol L); settings: 320 g/ha, 3 weeks after application
Description: as §1, §2

Abutilon theophrasti = assay: Test Example 5: herbicidal effect by foliage application, plastic box (symbol M); settings: 320 g/ha, 3 weeks after application
Description: as §1, §2

Amaranthus retroflexus = assay: Test Example 5: herbicidal effect by foliage application, plastic box (symbol N); settings: 320 g/ha, 3 weeks after application
Description: as §1, §2

Chenopodium album = assay: Test Example 5: herbicidal effect by foliage application, plastic box (symbol O); settings: 320 g/ha, 3 weeks after application
Description: as §1, §2

Stellaria media = assay: Test Example 5: herbicidal effect by foliage application, plastic box (symbol P); settings: 320 g/ha, 3 weeks after application
Description: as §1, §2

Veronica persica = assay: Test Example 5: herbicidal effect by foliage application, plastic box (symbol R); settings: 320 g/ha, 3 weeks after application
Description: as §1, §2

corn = assay: Test Example 5: effect on crop by foliage application, plastic box (symbol c); settings: 320 g/ha, 3 weeks after application
Description: as §1
(§3) Sterilized diluvial soil was placed in a plastic box having a length of 21 cm, a width of 13 cm, and a depth of 7 cm. Each of the seeds of Digitaria ciliaris, Setaria viridis, Echinochloa crus-galli var. crus-galli, Avena fatua, Alopecurus myosuroides, Lolium multiflorum Lam., Apera spica-venti, Abutilon theophrasti, Amaranthus retroflexus, Chenopodium album, Stellaria media, Galium spurium, Veronica persica, corn, soybean, rice plant, wheat, beet, and rapeseed was sowed in a spot-like manner and was covered with the soil of a thickness of about 1.5 cm. Thereafter, the plants were grown in the greenhouse of 25° C. to 30° C.

soybean = assay: Test Example 5: effect on crop by foliage application, plastic box (symbol d); settings: 320 g/ha, 3 weeks after application
Description: as §1, §3

rice plant = assay: Test Example 5: effect on crop by foliage application, plastic box (symbol b); settings: 320 g/ha, 3 weeks after application
Description: as §1, §3

wheat = assay: Test Example 5: effect on crop by foliage application, plastic box (symbol e); settings: 320 g/ha, 3 weeks after application
Description: as §1, §3

beet = assay: Test Example 5: effect on crop by foliage application, plastic box (symbol f); settings: 320 g/ha, 3 weeks after application
Description: as §1, §3

rapeseed = assay: Test Example 5: effect on crop by foliage application, plastic box (symbol g); settings: 320 g/ha, 3 weeks after application
Description: as §1, §3

[2] = test system: Echinochloa oryzacola Vasing.; assay: Test Example 1: herbicidal activity, application before weed generation in submerged conditions (symbol A); settings: application herbicide amount 320 g/ha
Description: (§4) Herbicidal Activity Test by Application Before Weed Generation in Submerged Conditions
(§5) After alluvial soil was placed into 1/10000 are of Wagner pot, water was poured and mixed to form a submerged condition having a water depth of 4 cm. Seeds of Echinochloa oryzacola Vasing., Scirpus juncoides, and Monochoria vaginalis were sowed in a mixed manner in the above pot and thereafter 2.5 leaf stage rice plant seedlings were transplanted thereto. On the day of sowing seeds, the emulsion agent of the compound of the present invention prepared in accordance with Formulation Example 2 was diluted with water so as to be a predetermined herbicide amount and the diluted emulsion agent was applied to the surface of the water. The pot was placed in a greenhouse of 25° C. to 30° C. to grow plant. 3 weeks later from the herbicide application, the effect to each plant was investigated in accordance with the following criteria.
(§6) 5 Herbicidal ratio of 90% or more (almost completely withered)
(§7) 4 Herbicidal ratio of 70% or higher and lower than 90%
(§8) 3 Herbicidal ratio of 40% or higher and lower than 70%
(§9) 2 Herbicidal ratio of 20% or higher and lower than 40%
(§10) 1 Herbicidal ratio of 5% or higher and lower than 20%
(§11) 0 Herbicidal ratio of 5% or lower (almost no effect)

Scirpus juncoides = assay: Test Example 1: herbicidal activity, application before weed generation in submerged conditions (symbol B); settings: application herbicide amount 320 g/ha
Description: as §4, §5, §6, §7, §8, §9, §10, §11

Monochoria vaginalis = assay: Test Example 1: herbicidal activity, application before weed generation in submerged conditions (symbol C); settings: application herbicide amount 320 g/ha
Description: as §4, §5, §6, §7, §8, §9, §10, §11

transplanted rice plant = assay: Test Example 1: effect on crop, application before weed generation in submerged conditions (symbol a); settings: application herbicide amount 320 g/ha
Procedure: as §4
After alluvial soil was placed into 1/10000 are of Wagner pot, water was poured and mixed to form a submerged condition having a water depth of 4 cm. Seeds of Echinochloa oryzacola Vasing., Scirpus juncoides, and Monochoria vaginalis were sowed in a mixed manner in the above pot and thereafter 2.5 leaf stage rice plant seedlings were transplanted thereto. […] The pot was placed in a greenhouse of 25° C. to 30° C. to grow plant. 3 weeks later from the herbicide application, the effect to each plant was investigated in accordance with the following criteria.
as §6, §7, §8, §9, §10, §11

[3] = test system: Echinochloa crus-galli var. crus-galli; assay: Test Example 3: herbicidal effect by foliage application, Wagner pot (symbol H); settings: application herbicide amount 320 g/ha
Procedure: as §1
(§12) After alluvial soil was placed into 1/10000 are of Wagner pot, water was poured and mixed to form a submerged condition having a water depth of 0.1 cm to 0.5 cm. Seeds of Echinochloa crus-galli var. crus-galli, Leptochloa chinensis, Cyperus difformis, and rice were sowed and the pot was placed in the greenhouse of 25° C. to 30° C. to grow the plants. After the plants were grown for 14 days, the emulsion agent of the compound of the present invention prepared in accordance with Formulation Example 2 was diluted with water so as to be a predetermined herbicide amount and the diluted emulsion agent was uniformly applied to a foliage part with a small-size spray. 3 weeks later from the herbicide application, the effect to each plant was investigated in accordance with the criteria of Test Example 1.

Leptochloa chinensis = assay: Test Example 3: herbicidal effect by foliage application, Wagner pot (symbol D); settings: application herbicide amount 320 g/ha
Procedure: as §1, §12

Cyperus difformis = assay: Test Example 3: herbicidal effect by foliage application, Wagner pot (symbol E); settings: application herbicide amount 320 g/ha
Procedure: as §1, §12

[4] = test system: directly sowed rice plant; assay: Test Example 3: effect on crop by foliage application, Wagner pot (symbol b); settings: application herbicide amount 320 g/ha
Procedure: as §1
After alluvial soil was placed into 1/10000 are of Wagner pot, water was poured and mixed to form a submerged condition having a water depth of 0.1 cm to 0.5 cm. Seeds of Echinochloa crus-galli var. crus-galli, Leptochloa chinensis, Cyperus difformis, and rice were sowed and the pot was placed in the greenhouse of 25° C. to 30° C. to grow the plants.

SMILES	F: Digitaria ciliaris, herbicidal effect grade (Digitaria ciliaris)	G: Setaria viridis, herbicidal effect grade (Setaria viridis)	H: Echinochloa crus-galli var. crus-galli, herbicidal effect grade [1]	I: Avena fatua, herbicidal effect grade (Avena fatua)	J: Alopecurus myosuroides, herbicidal effect grade (Alopecurus myosuroides)	L: Apera spica-venti, herbicidal effect grade (Apera spica-venti)	M: Abutilon theophrasti, herbicidal effect grade (Abutilon theophrasti)	N: Amaranthus retroflexus, herbicidal effect grade (Amaranthus retroflexus)	O: Chenopodium album, herbicidal effect grade (Chenopodium album)	P: Stellaria media, herbicidal effect grade (Stellaria media)	R: Veronica persica, herbicidal effect grade (Veronica persica)	c: corn, effect on crop grade (corn)	d: soybean, effect on crop grade (soybean)	b: directly sowed rice plant, effect on crop grade (rice plant)	e: wheat, effect on crop grade (wheat)	f: beet, effect on crop grade (beet)	g: rapeseed, effect on crop grade (rapeseed)	herbicidal effect on H (Echinochloa crus-galli var. crus-galli), grade 0-5 [3]	herbicidal effect on D (Leptochloa chinensis), grade 0-5 (Leptochloa chinensis)	herbicidal effect on E, grade 0-5 (Cyperus difformis)	further results
CCC(C(C)=O)(C(=O)OC)C1CC(O)=C(c2c(C)cc(C)cc2C)C1=O (centres unmarked) [2-023]	0 (Herbicidal ratio of 5% or lower (almost no effect))	0 (Herbicidal ratio of 5% or lower (almost no effect))	1 (Herbicidal ratio of 5% or higher and lower than 20%)	0 (Herbicidal ratio of 5% or lower (almost no effect))	0 (Herbicidal ratio of 5% or lower (almost no effect))	0 (Herbicidal ratio of 5% or lower (almost no effect))	0 (Herbicidal ratio of 5% or lower (almost no effect))	0 (Herbicidal ratio of 5% or lower (almost no effect))	0 (Herbicidal ratio of 5% or lower (almost no effect))	0 (Herbicidal ratio of 5% or lower (almost no effect))	0 (Herbicidal ratio of 5% or lower (almost no effect))	0 (Herbicidal ratio of 5% or lower (almost no effect))	0 (Herbicidal ratio of 5% or lower (almost no effect))	3 (Herbicidal ratio of 40% or higher and lower than 70%)	0 (Herbicidal ratio of 5% or lower (almost no effect))	0 (Herbicidal ratio of 5% or lower (almost no effect))	0 (Herbicidal ratio of 5% or lower (almost no effect))				K: Lolium multiflorum Lam., herbicidal effect grade (Lolium multiflorum Lam.): 1 (Herbicidal ratio of 5% or higher and lower than 20%)
CC(=O)CC1CC(O)=C(c2c(C)cc(C=Cc3ccccc3)cc2C)C1=O (centres unmarked) [7-023]																		0 (Herbicidal ratio of 5% or lower (almost no effect))	5 (Herbicidal ratio of 90% or more (almost completely withered))	0 (Herbicidal ratio of 5% or lower (almost no effect))	Herbicidal effect grade, A: Echinochloa oryzacola Vasing. [2]: 2 (Herbicidal ratio of 20% or higher and lower than 40%); Herbicidal effect grade, B: Scirpus juncoides (Scirpus juncoides): 0 (Herbicidal ratio of 5% or lower (almost no effect)); Herbicidal effect grade, C: Monochoria vaginalis (Monochoria vaginalis): 0 (Herbicidal ratio of 5% or lower (almost no effect)); Effect grade on crop, a: transplanted rice plant (transplanted rice plant): 1 (Herbicidal ratio of 5% or higher and lower than 20%); effect on crop b (directly sowed rice plant), grade 0-5 [4]: 0 (Herbicidal ratio of 5% or lower (almost no effect))
CON=C(C)CC1CC(O)=C(c2c(C)cc(NC(=O)OC(C)(C)C)cc2C)C1=O (mixture of isomers) [6-033]	0 (Herbicidal ratio of 5% or lower (almost no effect))	0 (Herbicidal ratio of 5% or lower (almost no effect))	1 (Herbicidal ratio of 5% or higher and lower than 20%)	3 (Herbicidal ratio of 40% or higher and lower than 70%)	0 (Herbicidal ratio of 5% or lower (almost no effect))	0 (Herbicidal ratio of 5% or lower (almost no effect))	0 (Herbicidal ratio of 5% or lower (almost no effect))	0 (Herbicidal ratio of 5% or lower (almost no effect))	0 (Herbicidal ratio of 5% or lower (almost no effect))	0 (Herbicidal ratio of 5% or lower (almost no effect))	0 (Herbicidal ratio of 5% or lower (almost no effect))	3 (Herbicidal ratio of 40% or higher and lower than 70%)	0 (Herbicidal ratio of 5% or lower (almost no effect))	3 (Herbicidal ratio of 40% or higher and lower than 70%)	0 (Herbicidal ratio of 5% or lower (almost no effect))	0 (Herbicidal ratio of 5% or lower (almost no effect))	1 (Herbicidal ratio of 5% or higher and lower than 20%)	0 (Herbicidal ratio of 5% or lower (almost no effect))	0 (Herbicidal ratio of 5% or lower (almost no effect))	3 (Herbicidal ratio of 40% or higher and lower than 70%)	effect on crop b (directly sowed rice plant), grade 0-5 [4]: 0 (Herbicidal ratio of 5% or lower (almost no effect))
